Measurements: patent publication US7589123B2, “Chemical compounds” (Phytopharm PLC, priority 2006, dated 2009)

Assays:
[1] = system: α-smooth muscle actin (α-SMA) mRNA; assay: Anti-remodelling activity in human lung fibroblasts (HFL1): TGFβ-induced α-SMA mRNA (Assay 4); format: cell-based; details: Homo sapiens, HFL1 cells, TGFβ 10 ng/ml, 24 h, read-out: Inhibition of α-SMA mRNA synthesis (%)
Method in brief: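 Real-time RT-PCR of α-SMA mRNA, GAPDH as reference, measured after 24 h exposure of low-serum-primed HFL1 cells to 10 ng/ml TGFβ with test compounds (3 and 30 μM) in 10% FBS medium. Readout is inhibition of TGFβ-driven α-SMA mRNA overexpression.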

[2] = target: T1, TRPV1 receptor (Rattus norvegicus, UniProt O35433); assay: TRPV1 receptor modulation in the rat vas deferens, EFS-induced contraction (Assay 1); details: electrical field stimulation, read-out: Inhibition of EFS response relative to capsaicin
T1 sequence (O35433 whole entry): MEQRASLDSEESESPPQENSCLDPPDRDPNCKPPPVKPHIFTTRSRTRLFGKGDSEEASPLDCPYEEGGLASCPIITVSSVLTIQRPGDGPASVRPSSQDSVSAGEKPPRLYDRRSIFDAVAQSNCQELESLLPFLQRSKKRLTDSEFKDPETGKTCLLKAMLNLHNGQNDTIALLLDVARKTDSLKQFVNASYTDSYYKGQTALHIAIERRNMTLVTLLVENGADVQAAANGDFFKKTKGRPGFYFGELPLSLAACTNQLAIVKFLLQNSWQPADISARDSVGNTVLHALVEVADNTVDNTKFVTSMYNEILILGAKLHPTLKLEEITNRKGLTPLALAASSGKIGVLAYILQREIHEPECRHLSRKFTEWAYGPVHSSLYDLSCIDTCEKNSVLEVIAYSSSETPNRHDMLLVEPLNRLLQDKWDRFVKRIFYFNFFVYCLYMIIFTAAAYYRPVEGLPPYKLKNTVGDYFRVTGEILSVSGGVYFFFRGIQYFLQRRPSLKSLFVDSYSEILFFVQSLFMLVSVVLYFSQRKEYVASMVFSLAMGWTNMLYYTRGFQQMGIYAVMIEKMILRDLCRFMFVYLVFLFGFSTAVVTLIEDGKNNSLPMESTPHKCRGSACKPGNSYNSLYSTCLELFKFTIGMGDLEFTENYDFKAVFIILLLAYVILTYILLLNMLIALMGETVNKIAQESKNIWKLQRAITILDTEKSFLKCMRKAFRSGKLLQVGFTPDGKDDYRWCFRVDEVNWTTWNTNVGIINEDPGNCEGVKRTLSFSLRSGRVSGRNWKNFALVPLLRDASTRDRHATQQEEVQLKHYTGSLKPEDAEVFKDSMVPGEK
Method: Wistar derived male rats (275±25 g) were suppressed by CO2 overexposure. The vas deferens was removed, placed in Krebs solution, pH 7.4 (composition in g/l: NaCl 6.89, KCl 0.35, CaCl2 0.277, KH2PO4 0.163, MgSO4.7H2O 0.296, NaHCO3 2.1 glucose 1.8) and excess fat and connective tissue removed. The portion of the vas deferens closest to the prostate was cut in half and each half was placed under 1 g tension in a 10 ml bath containing Krebs solution at 32° C. The tissue was contracted by electrical field stimulation (EFS; 60% of maximum stimulation, 0.015 Hz, 0.5 ms in duration) and contractile responses were measured.

[3] = target: T1, TRPV1 receptor; assay: TRPV1 modulation in DRG neurones: CGRP release in absence and presence of capsaicin (Assay 2); format: cell-based; parameters: The culture used for this experiment contained sensory neurones, Schwann cells and fibroblasts; endogenous in cells; host or cells: primary rat DRG sensory neurone culture (with Schwann cells and fibroblasts); details: 20 min; for inhibition at 3 µM: 3 μM with capsaicin 1 μM; for inhibition at 3 µM / inhibition at 30 µM: −ve: inhibition, +ve: potentiation of capsaicin response, read-out: Effect of test compounds on capsaicin (1 μM)-induced CGRP release (%); for inhibition at 30 µM: 30 μM with capsaicin 1 μM; for Emax at 3 µM: test compound alone 3 μM; for Emax at 3 µM / Emax at 30 µM: rat DRG sensory neurones, read-out: CGRP release (% of capsaicin (1 μM) response); for Emax at 30 µM: test compound alone 30 μM
[4] = system: histamine-induced contractions in guinea pig ileum; assay: Inhibition of histamine-induced contractions in guinea pig ileum (Assay 3); details: Cavia porcellus, histamine 1.7 μM, read-out: Inhibition of histamine-induced contraction (%)
Method in brief: (§1)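 Ileal strips from male Duncan Hartley guinea pigs were held at 1 g tension in 32° C oxygenated Krebs (pH 7.4) with isotonic transducers. After control contractions to 5-HT (2.6 μM) or histamine (1.7 μM), compound at 3 and 30 μM was added, its own effect noted, and agonist re-applied.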

[5] = target: T2, 5-lipoxygenase (Homo sapiens, UniProt P09917); assay: 5-lipoxygenase activity (LTB4) in human peripheral blood mononuclear leukocytes (Assay 6); format: cell-based; details: human PBMLs, A23187 30 μM, read-out: Inhibition of 5-LO (%)
T2 construct: endogenous in cells; host or cells: human peripheral blood mononuclear leukocytes (PBMLs)
T2 sequence (P09917 1-674): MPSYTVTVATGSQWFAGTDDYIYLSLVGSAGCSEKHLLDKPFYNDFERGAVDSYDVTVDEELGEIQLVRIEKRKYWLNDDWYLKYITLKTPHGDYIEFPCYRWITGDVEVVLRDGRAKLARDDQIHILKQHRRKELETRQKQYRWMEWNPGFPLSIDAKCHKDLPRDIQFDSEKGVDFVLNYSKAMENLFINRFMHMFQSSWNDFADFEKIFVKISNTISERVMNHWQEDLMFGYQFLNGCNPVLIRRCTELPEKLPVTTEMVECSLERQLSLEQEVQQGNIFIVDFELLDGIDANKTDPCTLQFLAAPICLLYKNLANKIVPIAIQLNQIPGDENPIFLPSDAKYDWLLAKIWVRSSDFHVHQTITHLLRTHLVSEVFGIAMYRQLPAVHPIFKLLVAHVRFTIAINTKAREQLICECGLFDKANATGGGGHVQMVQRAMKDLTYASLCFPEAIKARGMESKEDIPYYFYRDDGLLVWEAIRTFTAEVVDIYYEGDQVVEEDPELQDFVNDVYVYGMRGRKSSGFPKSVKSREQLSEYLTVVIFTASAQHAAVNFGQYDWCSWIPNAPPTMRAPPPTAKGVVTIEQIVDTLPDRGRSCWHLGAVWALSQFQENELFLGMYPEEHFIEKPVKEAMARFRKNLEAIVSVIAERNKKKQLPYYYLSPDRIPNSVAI
Method in brief: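 LTB4 in supernatant quantified by EIA after 15 min at 37° C. in HBSS, pH 7.4, where Ficoll-isolated human PBMLs (5×10^6) received ionophore A23187 (30 μM) and test compound (3 and 30 μM) or 0.1% DMSO vehicle.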

[6] = system: 5-HT-induced contractions in guinea pig ileum; assay: Inhibition of 5-HT-induced contractions in guinea pig ileum (Assay 3); details: Cavia porcellus, 5-HT 2.6 μM, read-out: Inhibition of 5-HT-induced contraction (%)
Method in brief: as §1

| Emax [2] [%] | inhibition at 3 µM [3] [%] | inhibition at 30 µM [3] [%] | Emax at 3 µM [3] [%] | Emax at 30 µM [3] [%] | inhibition at 3 µM [5] [%] | inhibition at 30 µM [5] [%] | SMILES | inhibition at 3 µM [1] [%] | inhibition at 30 µM [1] [%] | inhibition at 3 µM [4] [%] | inhibition at 30 µM [4] [%] | inhibition at 3 µM [6] [%] | inhibition at 30 µM [6] [%] |
| --- | --- | --- | --- | --- | --- | --- | --- | --- | --- | --- | --- | --- | --- |
| 38 | -49 | 23 | 49 | 36 | 89 | 96 | COc1cc(CCC(=O)CC(=O)c2ccccc2)ccc1O [Compound 69, 5-(4-Hydroxy-3-methoxyphenyl)-1-phenyl-pentane-1,3-dione] | 10 | 34 | 9 | 41 | 9 | 63 |
| 24 | 15 | 28 | 52 | 49 | 47 | 78 | COc1cc(CCC(=O)CC(=O)C2(C)CC2)ccc1O [Compound 6, 5-(4-Hydroxy-3-methoxyphenyl)-1-(1-methylcyclopropyl)-pentane-1,3-dione] | -12 | 22 | 0 | 12 | 0 | 34 |
| 68 | 8 | 12 | 24 | 111 | 47 | 92 | COc1cc(CCC(=O)C(C)C(=O)c2ccccc2)ccc1O (stereo not shown) [Compound 11, 5-(4-Hydroxy-3-methoxy-phenyl)-2-methyl-1-phenyl-pentane-1,3-dione] | 8 | 39 | 0 | 32 | 0 | 53 |

| SMILES | Emax [2] [%] | inhibition at 3 µM [3] [%] | inhibition at 30 µM [3] [%] | Emax at 3 µM [3] [%] | Emax at 30 µM [3] [%] | inhibition at 3 µM [5] [%] | inhibition at 30 µM [5] [%] | inhibition at 3 µM [1] [%] | inhibition at 30 µM [1] [%] | inhibition at 3 µM [4] [%] | inhibition at 30 µM [4] [%] | inhibition at 3 µM [6] [%] | inhibition at 30 µM [6] [%] |
| --- | --- | --- | --- | --- | --- | --- | --- | --- | --- | --- | --- | --- | --- |
| COc1cc(CCC(=O)CC(=O)C(C)(C)C)ccc1O [Compound 2, 6,6-Dimethyl-1-(4-hydroxy-3-methoxyphenyl)-heptane-3,5-dione] | 96 | -46 | -8 | 20 | 117 | 30 | 76 | 5 | 27 | 0 | 28 | 8 | 79 |
| COc1cc(CCC(=O)C(C)(C)C(=O)c2ccccc2)ccc1O [Compound 32, 2,2-Dimethyl-5-(4-hydroxy-3-methoxy-phenyl)-1-phenyl-pentane-1,3-dione] | – | 47 | 40 | 22 | 21 | 45 | 96 | 13 | 58 | 15 | 89 | 9 | 93 |
